# In ChEMBL document CHEMBL5291721, “A preclinical secondary pharmacology resource illuminates target-adverse drug reaction associations of marketed drugs” (Nat Commun, 2023):
# What was measured:
# [1] = biological target: Kappa-type opioid receptor (Homo sapiens, UniProt P41145)
# [2] = biological target: 5-hydroxytryptamine receptor 2B (Homo sapiens, UniProt P41595); format: functional, cell-based
# Cannabinoid receptor 1 = Cannabinoid receptor 1 (Homo sapiens, UniProt P21554); format: functional, cell-based
# Cannabinoid receptor 1, sequence (P21554 whole entry): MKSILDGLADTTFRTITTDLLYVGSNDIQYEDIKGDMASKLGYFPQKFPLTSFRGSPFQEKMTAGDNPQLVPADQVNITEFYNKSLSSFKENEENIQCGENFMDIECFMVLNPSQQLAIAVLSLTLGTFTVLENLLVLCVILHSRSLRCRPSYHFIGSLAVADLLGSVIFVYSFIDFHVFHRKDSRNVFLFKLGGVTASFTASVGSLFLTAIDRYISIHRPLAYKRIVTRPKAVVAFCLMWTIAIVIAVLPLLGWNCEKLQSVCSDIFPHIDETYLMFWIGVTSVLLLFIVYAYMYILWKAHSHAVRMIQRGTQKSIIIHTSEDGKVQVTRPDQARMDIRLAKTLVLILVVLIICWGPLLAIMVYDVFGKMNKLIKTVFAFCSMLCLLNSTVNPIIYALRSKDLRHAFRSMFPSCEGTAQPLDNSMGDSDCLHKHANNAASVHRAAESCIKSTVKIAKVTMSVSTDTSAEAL
# [3] = biological target: Gamma-aminobutyric acid receptor subunit alpha-1 (Rattus norvegicus, UniProt P62813); format: functional
# Gamma-aminobutyric acid receptor subunit alpha-1, sequence (P62813 whole entry): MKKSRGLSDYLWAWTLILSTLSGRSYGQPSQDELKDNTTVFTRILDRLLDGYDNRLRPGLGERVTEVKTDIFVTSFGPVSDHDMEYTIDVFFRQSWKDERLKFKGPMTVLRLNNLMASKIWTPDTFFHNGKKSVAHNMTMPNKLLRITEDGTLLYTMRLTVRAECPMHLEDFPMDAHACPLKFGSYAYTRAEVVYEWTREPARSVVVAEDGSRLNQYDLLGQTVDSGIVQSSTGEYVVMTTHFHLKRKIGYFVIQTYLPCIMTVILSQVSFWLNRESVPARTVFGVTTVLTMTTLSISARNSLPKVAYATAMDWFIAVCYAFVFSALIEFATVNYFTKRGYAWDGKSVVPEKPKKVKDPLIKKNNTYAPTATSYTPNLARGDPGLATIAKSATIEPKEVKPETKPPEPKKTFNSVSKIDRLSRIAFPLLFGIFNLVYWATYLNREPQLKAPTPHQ
# B2 bradykinin receptor = biological target: T1, B2 bradykinin receptor (Homo sapiens, UniProt P30411)
# T1 sequence (P30411 whole entry): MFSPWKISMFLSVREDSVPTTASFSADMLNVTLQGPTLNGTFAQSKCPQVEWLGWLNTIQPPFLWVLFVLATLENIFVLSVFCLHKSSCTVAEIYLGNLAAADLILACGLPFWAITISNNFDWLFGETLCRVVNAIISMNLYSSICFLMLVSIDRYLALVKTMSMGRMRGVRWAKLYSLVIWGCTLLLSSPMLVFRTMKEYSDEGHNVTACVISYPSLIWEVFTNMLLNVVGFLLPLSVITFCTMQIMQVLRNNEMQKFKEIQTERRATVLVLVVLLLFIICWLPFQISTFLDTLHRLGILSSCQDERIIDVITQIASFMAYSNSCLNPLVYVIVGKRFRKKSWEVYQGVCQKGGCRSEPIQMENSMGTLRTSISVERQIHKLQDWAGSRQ
# [4] = biological target: T2, Alpha-2B adrenergic receptor (Homo sapiens, UniProt P18089)
# T2 sequence (P18089 whole entry): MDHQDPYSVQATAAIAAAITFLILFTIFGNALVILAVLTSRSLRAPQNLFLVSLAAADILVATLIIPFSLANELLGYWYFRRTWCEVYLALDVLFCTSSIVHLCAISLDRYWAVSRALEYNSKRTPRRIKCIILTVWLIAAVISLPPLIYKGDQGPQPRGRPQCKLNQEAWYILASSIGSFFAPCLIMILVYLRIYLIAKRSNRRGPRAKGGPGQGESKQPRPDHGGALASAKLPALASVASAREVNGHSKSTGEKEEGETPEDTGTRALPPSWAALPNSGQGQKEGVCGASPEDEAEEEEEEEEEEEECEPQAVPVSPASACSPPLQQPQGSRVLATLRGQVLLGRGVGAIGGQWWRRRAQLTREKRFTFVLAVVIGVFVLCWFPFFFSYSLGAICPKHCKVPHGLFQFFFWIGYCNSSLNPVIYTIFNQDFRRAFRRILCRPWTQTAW
# Motilin receptor = Motilin receptor (Homo sapiens, UniProt O43193)
# Motilin receptor, sequence (O43193 whole entry): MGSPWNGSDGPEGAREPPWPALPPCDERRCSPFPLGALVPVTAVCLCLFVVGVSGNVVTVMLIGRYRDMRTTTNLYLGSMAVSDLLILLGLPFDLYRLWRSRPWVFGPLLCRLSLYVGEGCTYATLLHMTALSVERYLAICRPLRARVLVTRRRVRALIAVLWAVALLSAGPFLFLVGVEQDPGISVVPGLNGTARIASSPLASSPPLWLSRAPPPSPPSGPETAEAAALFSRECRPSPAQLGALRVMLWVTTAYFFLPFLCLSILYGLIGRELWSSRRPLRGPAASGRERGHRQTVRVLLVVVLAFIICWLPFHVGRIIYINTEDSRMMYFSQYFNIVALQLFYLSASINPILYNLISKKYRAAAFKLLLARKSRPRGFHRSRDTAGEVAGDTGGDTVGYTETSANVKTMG
# Vasopressin V2 receptor = Vasopressin V2 receptor (Homo sapiens, UniProt P30518)
# Vasopressin V2 receptor, sequence (P30518 whole entry): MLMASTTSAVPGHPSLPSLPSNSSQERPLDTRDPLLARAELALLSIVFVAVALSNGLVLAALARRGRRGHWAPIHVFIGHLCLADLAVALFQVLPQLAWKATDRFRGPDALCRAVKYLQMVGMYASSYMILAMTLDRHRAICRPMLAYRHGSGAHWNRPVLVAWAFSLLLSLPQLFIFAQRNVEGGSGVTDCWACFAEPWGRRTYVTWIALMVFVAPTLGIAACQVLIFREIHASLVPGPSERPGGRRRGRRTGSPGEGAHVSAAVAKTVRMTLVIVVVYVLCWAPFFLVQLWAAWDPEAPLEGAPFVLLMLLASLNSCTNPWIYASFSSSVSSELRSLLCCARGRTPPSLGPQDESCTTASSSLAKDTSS
# [5] = biological target: T3, Gastrin/cholecystokinin type B receptor (Homo sapiens, UniProt P32239)
# T3 sequence (P32239 whole entry): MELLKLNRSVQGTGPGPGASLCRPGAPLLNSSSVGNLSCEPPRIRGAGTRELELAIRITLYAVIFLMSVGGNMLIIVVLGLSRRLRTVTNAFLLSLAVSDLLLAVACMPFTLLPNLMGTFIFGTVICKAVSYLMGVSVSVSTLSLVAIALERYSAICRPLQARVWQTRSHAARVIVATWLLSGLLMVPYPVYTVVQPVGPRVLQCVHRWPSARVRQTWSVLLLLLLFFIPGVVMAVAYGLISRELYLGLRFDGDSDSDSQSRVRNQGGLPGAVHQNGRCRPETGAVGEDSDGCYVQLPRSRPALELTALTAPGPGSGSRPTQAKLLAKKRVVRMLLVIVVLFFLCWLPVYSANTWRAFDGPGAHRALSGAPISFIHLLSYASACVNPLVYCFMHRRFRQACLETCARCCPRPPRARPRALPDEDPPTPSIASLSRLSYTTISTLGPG
# Mu-type opioid receptor = Mu-type opioid receptor (Homo sapiens, UniProt P35372)
# Mu-type opioid receptor, sequence (P35372 whole entry): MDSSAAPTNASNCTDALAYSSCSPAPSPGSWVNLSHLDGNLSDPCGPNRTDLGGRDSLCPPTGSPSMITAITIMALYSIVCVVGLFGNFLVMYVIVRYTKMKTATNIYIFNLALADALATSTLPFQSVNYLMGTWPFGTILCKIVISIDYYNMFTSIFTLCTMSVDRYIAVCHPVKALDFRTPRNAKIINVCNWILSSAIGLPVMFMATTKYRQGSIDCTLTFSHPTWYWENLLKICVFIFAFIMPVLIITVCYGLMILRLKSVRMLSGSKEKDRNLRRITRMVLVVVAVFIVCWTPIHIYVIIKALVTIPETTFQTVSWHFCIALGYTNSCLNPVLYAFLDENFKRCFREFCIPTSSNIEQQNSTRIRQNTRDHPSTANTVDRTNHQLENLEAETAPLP
# [6] = biological target: Sodium-dependent serotonin transporter (Homo sapiens, UniProt P31645)
# Sodium-dependent serotonin transporter, sequence (P31645 whole entry): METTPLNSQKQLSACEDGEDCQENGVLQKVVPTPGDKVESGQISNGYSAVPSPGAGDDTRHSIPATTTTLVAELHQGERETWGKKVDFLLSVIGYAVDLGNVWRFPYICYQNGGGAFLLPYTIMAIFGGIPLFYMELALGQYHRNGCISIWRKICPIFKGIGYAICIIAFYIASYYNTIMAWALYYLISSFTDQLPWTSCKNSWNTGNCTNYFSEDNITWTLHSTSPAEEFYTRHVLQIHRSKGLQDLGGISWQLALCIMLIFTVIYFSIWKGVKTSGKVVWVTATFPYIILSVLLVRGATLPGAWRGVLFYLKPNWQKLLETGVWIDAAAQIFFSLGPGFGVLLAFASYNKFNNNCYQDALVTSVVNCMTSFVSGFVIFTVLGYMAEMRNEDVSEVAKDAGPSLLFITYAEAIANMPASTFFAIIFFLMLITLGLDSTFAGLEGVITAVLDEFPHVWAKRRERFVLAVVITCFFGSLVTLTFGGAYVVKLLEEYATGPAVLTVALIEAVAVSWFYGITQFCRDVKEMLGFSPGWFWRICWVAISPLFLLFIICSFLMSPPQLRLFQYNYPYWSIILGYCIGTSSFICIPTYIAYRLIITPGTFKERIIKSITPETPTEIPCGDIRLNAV
# Estrogen receptor = biological target: T4, Estrogen receptor (Homo sapiens, UniProt P03372)
# T4 sequence (P03372 whole entry): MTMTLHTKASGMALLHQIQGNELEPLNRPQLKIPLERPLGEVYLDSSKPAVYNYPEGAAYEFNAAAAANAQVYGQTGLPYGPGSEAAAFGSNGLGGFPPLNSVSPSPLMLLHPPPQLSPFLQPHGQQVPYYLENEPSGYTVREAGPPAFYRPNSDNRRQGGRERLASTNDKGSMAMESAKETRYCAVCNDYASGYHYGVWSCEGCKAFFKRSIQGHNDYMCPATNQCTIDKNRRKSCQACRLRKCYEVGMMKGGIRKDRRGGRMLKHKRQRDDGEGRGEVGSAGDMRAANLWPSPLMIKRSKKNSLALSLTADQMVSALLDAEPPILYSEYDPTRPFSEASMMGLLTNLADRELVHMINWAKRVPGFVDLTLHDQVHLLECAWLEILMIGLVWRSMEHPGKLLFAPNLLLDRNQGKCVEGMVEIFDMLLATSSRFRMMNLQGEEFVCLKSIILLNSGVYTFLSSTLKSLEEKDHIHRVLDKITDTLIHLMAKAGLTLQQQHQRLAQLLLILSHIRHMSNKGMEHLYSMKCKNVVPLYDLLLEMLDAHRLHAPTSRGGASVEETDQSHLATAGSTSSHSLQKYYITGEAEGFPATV
# [7] = biological target: T5, Alpha-2A adrenergic receptor (Homo sapiens, UniProt P08913); format: functional, cell-based
# T5 sequence (P08913 whole entry): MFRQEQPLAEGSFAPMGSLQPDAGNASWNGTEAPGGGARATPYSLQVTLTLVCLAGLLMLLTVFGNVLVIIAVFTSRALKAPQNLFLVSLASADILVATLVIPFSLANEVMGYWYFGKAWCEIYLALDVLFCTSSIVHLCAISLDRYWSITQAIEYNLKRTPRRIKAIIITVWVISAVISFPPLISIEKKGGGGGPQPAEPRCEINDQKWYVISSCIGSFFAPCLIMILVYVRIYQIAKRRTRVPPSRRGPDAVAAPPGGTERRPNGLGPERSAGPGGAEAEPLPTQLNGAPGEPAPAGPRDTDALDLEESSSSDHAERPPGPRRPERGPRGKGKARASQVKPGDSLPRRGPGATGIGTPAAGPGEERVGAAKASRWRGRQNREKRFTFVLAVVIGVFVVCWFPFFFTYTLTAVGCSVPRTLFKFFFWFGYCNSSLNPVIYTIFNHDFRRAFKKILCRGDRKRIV
# D(3) dopamine receptor = D(3) dopamine receptor (Homo sapiens, UniProt P35462)
# D(3) dopamine receptor, sequence (P35462 whole entry): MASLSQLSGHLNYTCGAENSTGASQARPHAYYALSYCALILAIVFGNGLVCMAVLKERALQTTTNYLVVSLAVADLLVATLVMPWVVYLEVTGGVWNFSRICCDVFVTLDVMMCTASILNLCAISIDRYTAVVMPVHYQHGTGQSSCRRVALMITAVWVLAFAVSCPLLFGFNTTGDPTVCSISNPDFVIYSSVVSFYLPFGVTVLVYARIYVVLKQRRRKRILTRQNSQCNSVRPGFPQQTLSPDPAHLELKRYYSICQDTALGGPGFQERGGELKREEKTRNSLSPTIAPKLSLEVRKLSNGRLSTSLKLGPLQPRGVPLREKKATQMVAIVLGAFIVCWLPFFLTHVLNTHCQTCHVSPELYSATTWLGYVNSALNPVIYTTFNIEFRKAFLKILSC
# Adenosine receptor A2a = Adenosine receptor A2a (Homo sapiens, UniProt P29274)
# Adenosine receptor A2a, sequence (P29274 whole entry): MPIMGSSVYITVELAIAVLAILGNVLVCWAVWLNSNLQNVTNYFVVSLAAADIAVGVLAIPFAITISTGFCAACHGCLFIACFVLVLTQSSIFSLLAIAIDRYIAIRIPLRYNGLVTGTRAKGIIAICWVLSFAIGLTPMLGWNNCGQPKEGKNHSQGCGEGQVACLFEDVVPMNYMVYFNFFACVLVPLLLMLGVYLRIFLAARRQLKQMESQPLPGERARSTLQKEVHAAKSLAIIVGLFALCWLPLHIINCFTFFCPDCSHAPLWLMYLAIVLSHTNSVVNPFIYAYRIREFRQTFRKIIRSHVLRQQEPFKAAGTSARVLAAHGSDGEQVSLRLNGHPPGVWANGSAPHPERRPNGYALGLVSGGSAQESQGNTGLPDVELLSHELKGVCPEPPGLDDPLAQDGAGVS
# Note: assay procedure not described here.
# 5-hydroxytryptamine receptor 2B, sequence (P41595 whole entry): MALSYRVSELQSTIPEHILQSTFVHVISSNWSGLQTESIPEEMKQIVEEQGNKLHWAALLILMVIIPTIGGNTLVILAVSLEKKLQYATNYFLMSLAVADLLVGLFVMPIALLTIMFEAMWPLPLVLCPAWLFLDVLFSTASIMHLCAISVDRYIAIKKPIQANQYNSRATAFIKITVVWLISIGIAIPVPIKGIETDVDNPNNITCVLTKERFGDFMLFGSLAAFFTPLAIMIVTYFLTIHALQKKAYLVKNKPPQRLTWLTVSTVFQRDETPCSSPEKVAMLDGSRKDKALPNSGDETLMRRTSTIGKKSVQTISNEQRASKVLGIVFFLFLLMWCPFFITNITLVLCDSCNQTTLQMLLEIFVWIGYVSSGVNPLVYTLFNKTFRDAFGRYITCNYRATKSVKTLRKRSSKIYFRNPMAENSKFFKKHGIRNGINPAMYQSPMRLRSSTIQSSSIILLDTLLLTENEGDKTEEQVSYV
# Kappa-type opioid receptor, sequence (P41145 whole entry): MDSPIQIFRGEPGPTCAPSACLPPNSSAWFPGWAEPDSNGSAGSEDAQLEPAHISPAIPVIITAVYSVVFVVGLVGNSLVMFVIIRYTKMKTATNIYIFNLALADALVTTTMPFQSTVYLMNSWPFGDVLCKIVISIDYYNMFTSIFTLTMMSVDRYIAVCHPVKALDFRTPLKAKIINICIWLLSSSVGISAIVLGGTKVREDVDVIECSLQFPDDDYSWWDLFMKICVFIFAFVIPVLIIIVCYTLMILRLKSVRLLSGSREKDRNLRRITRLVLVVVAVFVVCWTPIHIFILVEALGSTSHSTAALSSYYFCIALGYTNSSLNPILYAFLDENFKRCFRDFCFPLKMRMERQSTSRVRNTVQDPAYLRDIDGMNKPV
Structure (SMILES),AC50 [1],AC50 [2],AC50 (Cannabinoid receptor 1),AC50 [3],AC50 (B2 bradykinin receptor),AC50 [4],AC50 (Motilin receptor),AC50 (Vasopressin V2 receptor),AC50 [5],AC50 (Mu-type opioid receptor),AC50 [6],AC50 (Estrogen receptor),AC50 [7],AC50 (D(3) dopamine receptor),AC50 (Adenosine receptor A2a)
CCN(CC)CCCN(c1ccccc1)C1Cc2ccccc2C1 [APRINDINE],0.795 µM,> 30 µM,> 30 µM,> 30 µM,> 30 µM,> 30 µM,> 30 µM,> 30 µM,> 30 µM,19 µM,3.3 µM,> 30 µM,> 30 µM,3.15 µM,> 30 µM
COc1ccc(C(Cl)=C(c2ccc(OC)cc2)c2ccc(OC)cc2)cc1 [CHLOROTRIANISENE],> 30 µM,> 30 µM,> 30 µM,> 30 µM,> 30 µM,> 30 µM,> 30 µM,> 30 µM,> 30 µM,> 30 µM,> 30 µM,0.817 µM,> 30 µM,> 30 µM,> 30 µM
Oc1cc(O)c2c(c1)O[C@H](c1ccc(O)c(O)c1)[C@@H](O)C2 [CIANIDANOL],> 10 µM,> 10 µM,> 30 µM,> 10 µM,> 30 µM,> 10 µM,> 10 µM,> 30 µM,> 30 µM,> 30 µM,> 30 µM,> 30 µM,> 10 µM,> 30 µM,> 30 µM
Nc1nc(Cl)nc2c1ncn2[C@@H]1O[C@H](CO)[C@@H](O)[C@@H]1F [CLOFARABINE],> 10 µM,> 30 µM,,> 10 µM,> 30 µM,> 30 µM,> 30 µM,> 30 µM,> 30 µM,> 30 µM,> 30 µM,> 30 µM,> 10 µM,> 30 µM,22.1 µM
C=C(c1ccccc1OCc1cccc(Cl)c1)n1ccnc1 [CROCONAZOLE],1.03 µM,8.5 µM,> 30 µM,> 10 µM,> 30 µM,> 10 µM,> 10 µM,> 30 µM,> 30 µM,> 30 µM,16.8 µM,> 30 µM,> 10 µM,> 30 µM,> 30 µM
COC(=O)[C@H]1[C@H]2C[C@@H]3c4[nH]c5ccccc5c4CCN3C[C@H]2C[C@@H](OC(=O)c2cc(OC)c(OC)c(OC)c2)[C@@H]1OC [DESERPIDINE],13.7 µM,> 10 µM,,> 10 µM,> 30 µM,> 10 µM,> 30 µM,> 30 µM,> 30 µM,8.3 µM,> 10 µM,> 30 µM,> 10 µM,> 30 µM,> 30 µM
CCN(CC)C(C)C(=O)c1ccccc1 (configuration not stated) [DIETHYLPROPION],> 10 µM,> 10 µM,> 30 µM,> 10 µM,> 30 µM,13 µM,> 10 µM,> 30 µM,> 30 µM,> 30 µM,> 30 µM,> 30 µM,> 10 µM,> 30 µM,> 30 µM
Cc1ccc(-c2ncc(Cl)cc2-c2ccc(S(C)(=O)=O)cc2)cn1 [ETORICOXIB],> 10 µM,> 10 µM,> 30 µM,> 10 µM,> 30 µM,> 10 µM,> 10 µM,> 30 µM,> 10 µM,> 10 µM,> 10 µM,> 30 µM,> 10 µM,> 10 µM,> 10 µM
Cc1cnc(Nc2ccc(OCCN3CCCC3)cc2)nc1Nc1cccc(S(=O)(=O)NC(C)(C)C)c1 [FEDRATINIB],15.4 µM,> 10 µM,,> 10 µM,> 30 µM,> 10 µM,14 µM,> 30 µM,> 30 µM,17 µM,0.732 µM,> 30 µM,> 10 µM,5.3 µM,3.75 µM
CC1NCCOC1c1ccccc1 (configuration not stated) [PHENMETRAZINE],> 10 µM,23 µM,> 30 µM,> 10 µM,> 30 µM,> 10 µM,> 10 µM,> 30 µM,> 30 µM,> 30 µM,> 30 µM,> 30 µM,> 10 µM,> 30 µM,> 30 µM
CC(C)(N)Cc1ccccc1 [PHENTERMINE],> 10 µM,> 10 µM,> 30 µM,> 10 µM,> 30 µM,> 10 µM,> 10 µM,> 30 µM,> 30 µM,> 30 µM,> 30 µM,> 30 µM,> 10 µM,> 30 µM,> 30 µM
